Reference: patent US20200291127A1, “ANTIBODIES AND METHODS OF USE THEREOF” (AbeXXa Biologics, Inc., priority 2020, published 2020)

Target: HLA-E*0103 (Homo sapiens, UniProt P13747)
Experiment: HLA-E peptide refolding into monomer complexes
Assay type: biochemical

**Q.** Which “refolding of HLA-E*0103/peptide” value does the source give for YLLPAIVHI here?
**A.** Its value is “successfully refold HLA-E*0103/peptide into stable monomer complexes”.
